Experimental data: patent US9371331B2, “Modulators of methyl modifying enzymes, compositions and uses thereof” (Constellation Pharmaceuticals, Inc., priority 2012, dated 2016)
Counter-ions that a name gives are not always drawn. Like-named read-outs stand apart in the source and are kept apart here.

How the values were obtained:
EZH2 (rPRC2) = EZH2 (rPRC2) (Homo sapiens, UniProt Q15910); assay: EZH2 assay: rPRC2, biotinylated oligonucleosomes, 3H SAM methyl transfer (FlashPlate scintillation); type: biochemical; conditions: biotinylated oligonucleosome substrate
[1] = system: H3K27me3 mark in HeLa cells; assay: H3K27me3 MSD Hela Assay; type: cell-based; conditions: read-out: H3K27me3_MSD_HeLa_ (EC50)
Method in brief: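 HeLa cells treated with compound at various concentrations for 96 h at 37 °C, then lysed with high-salt extraction. H3K27me3 measured by MSD electrochemiluminescence immunoassay on total-H3 capture plates. Dose-dependent inhibition normalised to DMSO wells and fitted to curves.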

[2] = system: H3K27me3 mark in HeLa cells; assay: H3K27me3 Alpha Hela Assay (AlphaLISA); type: cell-based; conditions: 72 hrs; for EC50: read-out: H3K27me3_Alpha_HeLa_ (EC50)
Protocol: H3K27me3 Alpha Hela Assay (AlphaLISA).
Ten different doses of each test compound (in a series of 3-fold dilutions) were plated in duplicate 384-well tissue culture treated plates (Catalog #781080; Greiner Bio One; Monroe, N.C.). Hela cells grown in culture were trypsinized and counted using a Countess® cell counter (Catalog #C10281; Life Technologies, Grand Island, N.Y.). Cell were diluted to 67,000 cells per mL in 10% DMEM (Catalog #10569-010 Life Technologies. Grand Island, N.Y.) and 15 μL (1,000 cells) were plated into each well using the Biotek MicroFlo™ Select Dispenser (BioTek Instruments. Inc. Vermont, USA),) of the 384-well plate. Plates were incubated at 37° C./5% CO2 for 72 hrs. One of the duplicate plates was processed for HeLa assay and the other for viability.
To the plate processed for AlphaLISA was added 5 μL per well Cell-Histone Lysis buffer (1×) (Catalog #AL009F1 Perkin Elmer; Waltham, Mass.) and the plate was incubated at RT for 30 minutes on a plate shaker with low speed (Model#4625-Q Thermo Scientific; Waltham, Mass.). Then, 10 µL per well Histone Extraction buffer (catalog #AL009F2: Perkin Elmer; Waltham, Mass.) was added and the plate further incubated at RT for 20 min on plate shaker with low speed. To each well was then added 10 μL per well of a 5× mix of anti-K27me3 acceptor beads plus Biotinylated anti-Histone H3 (C-ter) Antibody (diluted to 3 nM final) (Catalog #AL118 Perkin Elmer; Waltham, Mass.). Dilution of the acceptor beads and then anti-Histone H3 was with 1× Histone Detection buffer (Catalog #AL009F3 Perkin Elmer; Waltham, Mass.) which was produced diluted from the 10× stock provided. The plate was sealed with an aluminum plate sealer and incubated at 23° C. for 60 min. We then added 10 μL 5× solution of Streptavidin Donor beads (Catalog #6760002 Perkin Elmer; Waltham, Mass.) (20 μg/mL final in 1× Histone Detection Buffer), sealed the plate with Aluminum plate sealer and incubated at 23° C. for 30 min. The plates were then read using an EnVision-Alpha Reader (model #2104 Perkin Elmer: Waltham, Mass.).
Data from both assays was analyzed using Assay Assistant (Constellation Pharmaceuticals In-house product) and Activity Base (IDBS Ltd. Surrey, UK) template. Data files were imported to Assay Assistant and assay conditions were specified. A unique Analysis ID was created and the data files exported to Activity Base. An analysis template was created on Activity Base to measure dose-dependent inhibition of H3K27me3 mark and cell viability respectively. Readout of DMSO wells were used to normalize the data. Resulting curves were fitted using Activity base software Model 205 (IDBS Ltd, Surrey, UK). The data was checked for quality, validated and integrated in excel format using SARview (IDBS Ltd, Surrey, UK).

Y641N EZH2 = Y641N EZH2 (Homo sapiens, UniProt Q15910, Y641N); assay: Y641N EZH2 assay: as EZH2 assay, with reconstituted H3K27Me2 oligonucleosomes as substrate; type: biochemical
[3] = EZH2 IC50, wild-type EZH2 (rPRC2)
[4] = Y641N EZH2 IC50, Y641N mutant EZH2, H3K27Me2 oligonucleosome substrate
[5] = wild-type EZH2 (rPRC2), read-out: EZH2 IC50
[6] = Y641N mutant EZH2, H3K27Me2 oligonucleosome substrate, read-out: Y641N EZH2 IC50

Sequence of Y641N EZH2 (Q15910 whole entry Y641N): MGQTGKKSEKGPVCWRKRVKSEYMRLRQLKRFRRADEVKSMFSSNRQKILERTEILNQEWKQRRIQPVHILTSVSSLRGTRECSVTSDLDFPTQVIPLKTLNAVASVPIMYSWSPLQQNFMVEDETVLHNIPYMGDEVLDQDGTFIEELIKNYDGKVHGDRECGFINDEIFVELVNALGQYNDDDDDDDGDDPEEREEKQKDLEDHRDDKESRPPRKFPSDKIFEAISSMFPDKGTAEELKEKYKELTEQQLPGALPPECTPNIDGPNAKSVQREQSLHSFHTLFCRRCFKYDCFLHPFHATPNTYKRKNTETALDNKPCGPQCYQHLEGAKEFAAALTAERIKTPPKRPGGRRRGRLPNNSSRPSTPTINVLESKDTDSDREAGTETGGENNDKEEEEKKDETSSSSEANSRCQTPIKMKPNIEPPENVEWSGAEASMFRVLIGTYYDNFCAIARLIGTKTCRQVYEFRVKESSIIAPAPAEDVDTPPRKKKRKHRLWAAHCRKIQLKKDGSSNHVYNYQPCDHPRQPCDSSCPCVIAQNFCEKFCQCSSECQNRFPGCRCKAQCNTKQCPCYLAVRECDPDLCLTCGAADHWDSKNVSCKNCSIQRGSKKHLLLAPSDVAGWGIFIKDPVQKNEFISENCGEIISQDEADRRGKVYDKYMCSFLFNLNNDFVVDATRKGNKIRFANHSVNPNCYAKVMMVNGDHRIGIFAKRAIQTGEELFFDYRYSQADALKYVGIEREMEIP
Sequence of Y641N EZH2 (O75530 whole entry partner): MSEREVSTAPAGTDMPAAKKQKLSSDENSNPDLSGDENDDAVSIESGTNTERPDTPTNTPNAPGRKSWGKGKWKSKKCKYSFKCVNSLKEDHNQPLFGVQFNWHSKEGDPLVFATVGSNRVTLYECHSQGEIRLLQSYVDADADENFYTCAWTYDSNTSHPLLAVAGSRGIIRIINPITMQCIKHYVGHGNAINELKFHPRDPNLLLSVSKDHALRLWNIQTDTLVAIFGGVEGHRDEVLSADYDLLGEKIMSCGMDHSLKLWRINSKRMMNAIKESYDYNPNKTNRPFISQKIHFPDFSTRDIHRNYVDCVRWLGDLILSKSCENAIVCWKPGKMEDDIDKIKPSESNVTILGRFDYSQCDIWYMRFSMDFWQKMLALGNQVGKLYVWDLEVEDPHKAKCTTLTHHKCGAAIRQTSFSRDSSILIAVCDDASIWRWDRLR
Sequence of Y641N EZH2 (Q15022 whole entry partner): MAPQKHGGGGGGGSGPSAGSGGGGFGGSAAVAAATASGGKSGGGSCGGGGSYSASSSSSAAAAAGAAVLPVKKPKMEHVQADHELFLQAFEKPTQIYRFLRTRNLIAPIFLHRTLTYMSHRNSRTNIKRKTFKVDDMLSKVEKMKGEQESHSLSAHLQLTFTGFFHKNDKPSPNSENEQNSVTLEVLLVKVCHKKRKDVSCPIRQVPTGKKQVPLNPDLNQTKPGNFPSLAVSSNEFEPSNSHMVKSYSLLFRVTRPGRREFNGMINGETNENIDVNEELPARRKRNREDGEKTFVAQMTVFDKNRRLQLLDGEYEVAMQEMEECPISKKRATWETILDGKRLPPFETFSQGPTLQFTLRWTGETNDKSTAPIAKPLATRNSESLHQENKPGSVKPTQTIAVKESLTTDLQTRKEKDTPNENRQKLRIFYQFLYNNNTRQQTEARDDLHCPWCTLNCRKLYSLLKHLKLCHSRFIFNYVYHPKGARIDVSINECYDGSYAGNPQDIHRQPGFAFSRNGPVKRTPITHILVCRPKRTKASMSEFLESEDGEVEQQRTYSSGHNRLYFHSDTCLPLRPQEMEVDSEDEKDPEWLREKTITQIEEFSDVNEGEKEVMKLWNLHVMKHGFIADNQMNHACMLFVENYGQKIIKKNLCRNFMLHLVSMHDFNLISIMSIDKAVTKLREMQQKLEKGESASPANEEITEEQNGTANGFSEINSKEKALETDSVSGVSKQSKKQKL
Sequence of EZH2 (rPRC2) (Q15910 whole entry): as the sequence (Q15910 whole entry Y641N) above, with N641Y counted along it
Sequence of EZH2 (rPRC2) (O75530 whole entry partner): as the sequence (O75530 whole entry partner) above
Sequence of EZH2 (rPRC2) (Q15022 whole entry partner): as the sequence (Q15022 whole entry partner) above

Compound: COc1cc(C)[nH]c(=O)c1CNC(=O)c1c(C)n(C(C)c2ccccc2)c2ccccc12 (single isomer, unassigned) [Compound 114, (R or S)N-((4-methoxy-6-methyl-2-oxo-1,2-dihydropyridin-3-yl)methyl)-2-methyl-1-(1-phenylethyl)-1H-indole-3-carboxamide]
- IC50 (EZH2 (rPRC2); [3]): < 100 nM
- EC50 ([1]; Homo sapiens, HeLa, 96 h): < 400 nM
- EC50 ([2]; Homo sapiens): 400 to 2000 nM
- IC50 (Y641N EZH2; [4]): < 100 nM

Compound: COc1cc(C)[nH]c(=O)c1CNC(=O)c1c(C)n(C(C)C2CCNCC2)c2ccccc12 (single isomer, unassigned) [Compound 326, (R or S)—N-((4-methoxy-6-methyl-2-oxo-1,2-dihydropyridin-3-yl)methyl)-2-methyl-1-(1-(piperidin-4-yl)ethyl)-1H-indole-3-carboxamide hydrochloride]
- IC50 (EZH2 (rPRC2); [3]): < 100 nM
- EC50 ([1]; Homo sapiens, HeLa, 96 h): 400 to 2000 nM
- EC50 ([2]; Homo sapiens): 400 to 2000 nM
- IC50 (Y641N EZH2; [4]): < 100 nM

Compound: COc1cc(C)[nH]c(=O)c1CNC(=O)c1c(C)n(C(C)C2CCOCC2)c2ncccc12 (single isomer, unassigned) [Compound 288, (R or S)-N-((4-Methoxy-6-methyl-2-oxo-1,2-dihydropyridin-3-yl)methyl)-2-methyl-1-(1-(tetrahydro-2H-pyran-4-yl)ethyl)-1H-pyrrolo[2,3-b]pyridine-3-carboxamide]
- IC50 (EZH2 (rPRC2); [3]): < 100 nM
- EC50 ([1]; Homo sapiens, HeLa, 96 h): 400 to 2000 nM
- EC50 ([2]; Homo sapiens): < 400 nM
- IC50 (Y641N EZH2; [4]): < 100 nM

Compound: COCC(C)n1c(C)c(C(=O)NCc2c(OC)cc(C)[nH]c2=O)c2ccccc21 (single isomer, unassigned) [Compound 224, N-((4-methoxy-6-methyl-2-oxo-1,2-dihydropyridin-3-yl)methyl)-1-(1-methoxypropan-2-yl)-2-methyl-1H-indole-3-carboxamide]
- IC50 (EZH2 (rPRC2); read-out: EZH2 IC50, wild-type EZH2 (rPRC2)): < 100 nM
- EC50 ([1]; Homo sapiens, HeLa, 96 h): < 400 nM
- EC50 ([2]; Homo sapiens): < 400 nM
- IC50 (Y641N EZH2; [4]): < 100 nM

Compound: COc1cc(C)[nH]c(=O)c1CNC(=O)c1c(C)n(C(C)C(C)OC)c2ncccc12 (single isomer, unassigned) [Compound 261, N-((4-methoxy-6-methyl-2-oxo-1,2-dihydropyridin-3-yl)methyl)-1-((2R or 2S, 3R or 3S)-3-methoxybutan-2-yl)-2-methyl-1H-pyrrolo[2,3-b]pyridine-3-carboxamide]
- IC50 (EZH2 (rPRC2); [3]): < 100 nM
- EC50 ([1]; Homo sapiens, HeLa, 96 h): < 400 nM
- EC50 ([2]; Homo sapiens): < 400 nM
- IC50 (Y641N EZH2; [4]): < 100 nM

Compound: COc1cc(C)[nH]c(=O)c1CNC(=O)c1c(C)n(C(C)C2CCOCC2)c2ccccc12 (single isomer, unassigned) [Compound 298, (R or S)-N-((4-methoxy-6-methyl-2-oxo-1,2-dihydropyridin-3-yl)methyl)-2-methy1-1-(1-(tetrahydro-2H-pyran-4-yl)ethyl)-1H-indole-3-carboxamide]
- EC50 ([1]; Homo sapiens, HeLa, 96 h): < 400 nM
- EC50 ([2]; Homo sapiens): < 400 nM

Compound: Cc1cc(C)c(CNC(=O)c2c(C)n(C(C)c3cccc(C#N)c3)c3ccccc23)c(=O)[nH]1 (centres unmarked) [Compound 187, 1-(1-(3-cyanophenyl)ethyl)-N-((4,6-dimethyl-2-oxo-1,2-dihydropyridin-3-yl)methyl)-2-methyl-1H-indole-3-carboxamide]
- IC50 (EZH2 (rPRC2); [3]): < 100 nM
- EC50 ([1]; Homo sapiens, HeLa, 96 h): 400 to 2000 nM
- EC50 ([2]; Homo sapiens): 400 to 2000 nM
- IC50 (Y641N EZH2; [4]): 100 to 1000 nM

Compound: COc1cc(C)[nH]c(=O)c1CNC(=O)c1c(C)n(C(C)C(C)OC)c2ccccc12 (racemic) [Compound 294, (±)-N-((4-methoxy-6-methyl-2-oxo-1,2-dihydropyridin-3-yl)methyl)-1-(3-methoxybutan-2-yl)-2-methyl-1H-indole-3-carboxamide]
- IC50 (EZH2 (rPRC2); [3]): < 100 nM
- EC50 ([1]; Homo sapiens, HeLa, 96 h): < 400 nM
- EC50 ([2]; Homo sapiens): < 400 nM
- IC50 (Y641N EZH2; [4]): < 100 nM

Compound: (±)-1-(1-(4,4-difluorocyclohexyl)ethyl)-N-((4-methoxy-6-methyl-2-oxo-1,2-dihydropyridin-3-yl)methyl)-2-methyl-1H-indole-3-carboxamide [Compound 304]
- IC50 (EZH2 (rPRC2); [5]): < 100 nM
- EC50 ([1]; HeLa cells, MSD, 96 hours): < 400 nM
- EC50 [2]: < 400 nM
- IC50 (Y641N EZH2; [6]): < 100 nM

Compound: COCC(C)(C)n1c(C)c(C(=O)NCc2c(OC)cc(C)[nH]c2=O)c2ccccc21 [Compound 338, 1-(1-methoxy-2-methylpropan-2-yl)-N-((4-methoxy-6-methyl-2-oxo-1,2-dihydropyridin-3-yl)methyl)-2-methyl-1H-indole-3-carboxamide]
- IC50 (EZH2 (rPRC2); [3]): < 100 nM
- EC50 ([2]; Homo sapiens): 400 to 2000 nM
- IC50 (Y641N EZH2; [4]): 100 to 1000 nM

Compound: COc1cc(C)[nH]c(=O)c1CNC(=O)c1c(C)n(C(C)C2CCOCC2)c2cc(F)ccc12 (single isomer, unassigned) [Compound 300, (R or S)-6-fluoro-N-((4-methoxy-6-methyl-2-oxo-1,2-dihydropyridin-3-yl)methyl)-2-methyl-1-(1-(tetrahydro-2H-pyran-4-yl)ethyl)-1 H-indole-3-carboxamide]
- IC50 (EZH2 (rPRC2); [3]): < 100 nM
- EC50 ([1]; Homo sapiens, HeLa, 96 h): < 400 nM
- EC50 ([2]; Homo sapiens): < 400 nM
- IC50 (Y641N EZH2; [4]): < 100 nM

Compound: Cc1cc(OC(F)F)c(CNC(=O)c2c(C)n(C(C)C3CCOCC3)c3ccccc23)c(=O)[nH]1 (single isomer, unassigned) [Compound 335, (R or S)-N-((4-(difluoromethoxy)-6-methyl-2-oxo-1,2-dihydropyridin-3-yl)methyl)-2-methyl-1-(1-(tetrahydro-2 H-pyran-4-yl)ethyl)-1 H-indole-3-carboxamide]
- IC50 (EZH2 (rPRC2); [3]): < 100 nM
- EC50 ([2]; Homo sapiens): < 400 nM
- IC50 (Y641N EZH2; [4]): < 100 nM

Compound: CCS(=O)(=O)C1(C(C)n2c(C)c(C(=O)NCc3c(OC)cc(C)[nH]c3=O)c3ccccc32)CCNCC1 (single isomer, unassigned) [Compound 345, (R or S)-1-(1-(4-(ethylsulfonyl)piperidin-4-yl)ethyl)-N-((4-methoxy-6-methyl-2-oxo-1,2-dihydropyridin-3-yl)methyl)-2-methyl-1 H-indole-3-carboxamide]
- IC50 (EZH2 (rPRC2); [3]): < 100 nM
- EC50 ([2]; Homo sapiens): < 400 nM
- IC50 (Y641N EZH2; [4]): < 100 nM

Compound: COc1cc(C)[nH]c(=O)c1CNC(=O)c1c(C)n(C(C)c2ccnc(N3CCNCC3)c2)c2ccccc12 (racemic) [Compound 353, (±)-N-((4-methoxy-6-methyl-2-oxo-1,2-dihydropyridin-3-yl)methyl)-2-methyl-1-(1-(2-(piperazin-1-yl)pyridine-4-yl)ethyl)-1H-indole-3-carboxamide]
- IC50 (EZH2 (rPRC2); [3]): < 100 nM
- H3K27me3_Alpha_HeLa_ (EC50) [2]: *(3.33 μM)
- IC50 (Y641N EZH2; [4]): < 100 nM

Compound: COc1cc(C)[nH]c(=O)c1CNC(=O)c1c(C)n(-c2cccc3c2CCCN3)c2ccccc12 [Compound 339, N-((4-methoxy-6-methyl-2-oxo-1,2-dihydropyridin-3-yl)methyl)-2-methyl-1-(1,2,3,4-tetrahydroquinolin-5-yl)-1H-indole-3-carboxamide]
- IC50 (EZH2 (rPRC2); [5]): < 100 nM
- EC50 ([2]; Homo sapiens): < 400 nM
- IC50 (Y641N EZH2; [6]): < 100 nM
